Data taken from patent publication US10130677B2, “Antimicrobial peptide and uses thereof” (priority 2013, dated 2018).
Like-named read-outs stand apart in the source and are kept apart here.

Assays:
S. aureus JAR060131 = assay type: cell-based, Staphylococcus aureus; conditions: for IC99.9: approx. 1 × 10^6 CFU/ml S. aureus JAR, within 2 hrs (Table 2)
Procedure: Polypeptides of the invention preferably have an in vitro IC99.9 of at most 150 μM after 2 hours at 37° C. against at least one microbial species in the presence of 50% plasma. Said IC99.9 is preferably determined in accordance with a method for determining the antimicrobial activity as described herein in the Examples. Said method described in the Examples for determining antimicrobial activity of microbes not associated with biofilm involves the mixing of 50 microL of a solution of a polypeptide in PBS with addition of human plasma at a final concentration of 50% and 20 microL of bacterial suspension with 5×10^6 CFU per mL of PBS in a well. After incubation of this mixture for 2 hours at 37° C. under shaking conditions, a sample is used for assessment of the bacterial counts. The lowest peptide concentration at which there is 99.9% of bacteria killed, is called the inhibitory concentration (IC) 99.9. Bacterial counts can be determined by manual CFU counting. For determining antibacterial activity for instance 1×10^6 CFU/ml bacteria are used, for determining antifungal activity for instance 1×10^5 cells/ml are used.
Peptides were incubated with 1×10^6 CFU/ml of a mid-logarithmic culture of S. aureus JAR060131, methicillin resistant S. aureus (MRSA) LUH14616, Staphylococcus epidermidis RP62a, and Pseudomonas aeruginosa PAO1 in PBS without or with addition of pooled human plasma (Sanquin, Amsterdam, the Netherlands) at a final concentration of 50%. Antimicrobial activity is expressed as the 99.9% lethal concentration (LC99.9), i.e., the lowest peptide concentration which killed ≥99.9% of bacteria after 2 hours of incubation at 37° C. under shaking conditions.

[1] = test system: LPS (E. coli 054)-induced IL-12p40 production; assay: LPS neutralization in whole human blood; assay type: cell-based
Source text: The term “anti-inflammatory activity” of a polypeptide as used herein refers to inhibiting, reducing or preventing an inflammatory response in a subject that has been infected by microbes, e.g. bacteria, viruses, fungi, and/or parasites. Anti-inflammatory activity of polypeptides of the invention is achieved by inhibiting, reducing or preventing the release of pro-inflammatory microbial compounds, such as lipoteichoic acid (LTA), peptidoglycan (PG) and/or lipopolysaccharides (LPS). Anti-inflammatory activity can be measured by methods known in the art. Examples of such method are a LPS neutralization assay and a LTA neutralization assay as described in the Examples of this application. In such method, a polypeptide of the invention is mixed with a fixed concentration of LPS or LTA, such as 500 ng/ml LPS or 2 mg/ml LTA, and incubated for 30 min. Thereafter, these mixtures were added to diluted fresh human whole blood and 20 hours thereafter the level of cytokines (e.g. 1L-8 for LTA and 1L-12p40 for LPS) in the blood sample are measured by ELISA.
Peptides were pre-incubated with 500 ng/ml LPS (E. coli 054) or 2 mg/ml LTA (S. aureus, endotoxin-free) or 1×10^9 CFU/ml of UV-killed S. aureus JAR060131 for 30 min at 37° C. Diluted whole human blood was stimulated with the peptide-LPS/LTA/S. aureus mixtures for 20 hours at 37° C. IL-12p40 and IL-8 levels in supernatants were determined using ELISA.

Substance: Ac-IGKEFKRIVERIKRFLRELVRPLR-NH2 [OP-145, JIGKEFKRIVERIKRFLRELVRPLRB, reference compound]
- IC99.9 (S. aureus JAR060131; 50% plasma): 204.8 µM
- LC99.9 (S. aureus JAR060131; 50% plasma, mid-logarithmic culture, median of at least two experiments (Table 3)): 204.8 µM
- LC99.9 (S. aureus JAR060131; JAR060131, 2 h): 1.6 µM
- IC99.9 (S. aureus JAR060131; PBS): 1.6 µM
- IC90 ([1]; LPS-induced IL-12p40, blood from two donors): 1.25 nM
- IC50 ([1]; diluted whole human blood, 20 hours): 0.15 nM
